Earlier results in paper PMC7571151, “Design, Synthesis and Bioactivity Evaluation of 4,6-Disubstituted Pyrido[3,2-d]pyrimidine Derivatives as Mnk and HDAC Inhibitors” (Molecules, 2020).

Test system: Daudi non-Hodgkin lymphoma xenograft model
Set-up: method as in PMID 22693356
Settings: cited from earlier work

COc1ccc(-c2nc(N3CCOCC3)c3sc(CN(C)c4ncc(C(=O)NO)cn4)cc3n2)cn1 [CUDC-907]
tumor growth (Daudi non-Hodgkin lymphoma xenograft model): inhibited tumor growth in a dose-dependent manner
Ac-H3 and p-AKT levels (in vivo anti-tumor activity studies): accumulation of Ac-H3 and a decrease in p-AKT levels
